One test deals with T1, BRG-1 (Homo sapiens, UniProt P51532).
T1 construct: made in house; host or cells: High Five insect cells
T1 sequence (P51532 whole entry): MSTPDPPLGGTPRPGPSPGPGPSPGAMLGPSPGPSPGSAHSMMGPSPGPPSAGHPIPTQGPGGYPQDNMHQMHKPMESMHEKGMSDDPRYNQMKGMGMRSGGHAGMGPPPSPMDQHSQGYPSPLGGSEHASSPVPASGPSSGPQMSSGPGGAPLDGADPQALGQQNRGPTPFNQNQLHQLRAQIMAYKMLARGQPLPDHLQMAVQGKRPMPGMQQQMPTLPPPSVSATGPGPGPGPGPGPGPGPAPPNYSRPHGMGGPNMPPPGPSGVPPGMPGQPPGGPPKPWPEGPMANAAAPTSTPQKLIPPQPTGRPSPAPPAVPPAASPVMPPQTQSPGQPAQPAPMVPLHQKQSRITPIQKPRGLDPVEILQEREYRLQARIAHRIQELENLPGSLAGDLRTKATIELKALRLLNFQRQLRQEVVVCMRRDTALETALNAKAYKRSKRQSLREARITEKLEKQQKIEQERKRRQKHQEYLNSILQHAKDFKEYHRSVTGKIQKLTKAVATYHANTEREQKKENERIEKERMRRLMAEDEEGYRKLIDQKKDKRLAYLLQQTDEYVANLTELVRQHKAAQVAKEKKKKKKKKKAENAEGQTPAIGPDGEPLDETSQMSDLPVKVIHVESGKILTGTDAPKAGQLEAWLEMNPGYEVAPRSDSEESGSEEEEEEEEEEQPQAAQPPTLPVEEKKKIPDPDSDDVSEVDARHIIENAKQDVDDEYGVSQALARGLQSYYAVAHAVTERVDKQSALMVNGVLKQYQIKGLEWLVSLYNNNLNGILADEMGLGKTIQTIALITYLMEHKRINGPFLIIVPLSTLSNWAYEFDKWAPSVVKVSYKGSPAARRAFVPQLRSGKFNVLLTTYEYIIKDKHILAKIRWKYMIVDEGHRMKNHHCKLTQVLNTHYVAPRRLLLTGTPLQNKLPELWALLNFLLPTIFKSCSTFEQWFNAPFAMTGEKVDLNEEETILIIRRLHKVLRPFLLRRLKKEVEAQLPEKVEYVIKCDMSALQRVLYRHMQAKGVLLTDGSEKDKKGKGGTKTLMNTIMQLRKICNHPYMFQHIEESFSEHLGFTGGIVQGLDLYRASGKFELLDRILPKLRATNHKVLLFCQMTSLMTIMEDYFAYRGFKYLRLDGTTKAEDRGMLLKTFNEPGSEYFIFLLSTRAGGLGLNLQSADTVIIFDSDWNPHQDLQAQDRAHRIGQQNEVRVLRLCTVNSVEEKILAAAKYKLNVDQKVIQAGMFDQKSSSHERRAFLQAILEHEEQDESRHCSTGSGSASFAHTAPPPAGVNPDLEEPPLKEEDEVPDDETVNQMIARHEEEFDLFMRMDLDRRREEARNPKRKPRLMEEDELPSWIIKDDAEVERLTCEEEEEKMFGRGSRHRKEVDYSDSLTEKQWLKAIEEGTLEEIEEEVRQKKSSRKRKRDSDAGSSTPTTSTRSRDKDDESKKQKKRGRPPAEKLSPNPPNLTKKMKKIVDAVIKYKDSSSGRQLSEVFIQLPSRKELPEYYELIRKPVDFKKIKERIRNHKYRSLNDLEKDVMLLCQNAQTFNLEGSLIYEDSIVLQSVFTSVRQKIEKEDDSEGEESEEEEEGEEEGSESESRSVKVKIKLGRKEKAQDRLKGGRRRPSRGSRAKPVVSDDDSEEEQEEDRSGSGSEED
As to the kind of experiment: ATPase catalytic activity assay (ADP-Glo), BRG-1. The test is classed as biochemical. The conditions noted are these: Table 10, read-out: BRG1 IC50. Here is the method:
The ATPase catalytic activity of BRM or BRG-1 was measured by an in vitro biochemical assay using ADP-Glo™ (Promega, V9102). The ADP-Glo™ kinase assay is performed in two steps once the reaction is complete. The first step is to deplete any unconsumed ATP in the reaction. The second step is to convert the reaction product ADP to ATP, which will be utilized by the luciferase to generate luminesce and be detected by a luminescence reader, such as Envision.
Then, following addition of 5 μL of ADP-Glo™ Reagent provided in the kit, the reaction incubates at room temperature for 40 minutes. Then, 10 μL of Kinase Detection Reagent provided in the kit is added to convert ADP to ATP, and the reaction incubates at room temperature for 60 minutes. Finally, luminescence measurement is collected with a plate-reading luminometer, such as Envision.
On the technique in general: ADP-Glo turns the ADP formed in a reaction into a luminescent signal.
Consider `Cc1cnc2c(c1)OCCN2c1ccc2cnc(CNC(=O)c3cc(F)c4c(c3)S(=O)(=O)[C@@H](F)COC4)cc2n1` [Compound 6, (R)-2,6-difluoro-N-((2-(7-methyl-2,3-dihydro-4H-pyrido[3,2-b][1,4]oxazin-4-yl)-1,6-naphthyridin-7-yl)methyl)-2,3-dihydro-5H-benzo[e][1,4]oxathiepine-8-carboxamide 1,1-dioxide], for which the IC50 came to 21.3 nM. Still for that read-out and setting: the result for `O=C(NCc1cc2nc(N3CCOc4cc(N5CC(F)C5)cnc43)ccc2cn1)c1ccc2c(c1)S(=O)(=O)[C@@H](F)CCOC2` [Compound 7] reads 17.9 nM; that for `C[C@@H]1OC[C@H](F)S(=O)(=O)c2cc(C(=O)NCc3cc4nc(N5CCOc6cc(C7CC7)cnc65)ccc4cn3)ccc21` [Compound 49], 44 nM; that for `CCO[C@@H]1CCN(c2cccc(-c3ccc4cnc(CNC(=O)c5cc(F)c6c(c5)S(=O)(=O)[C@@H](F)CCO6)cc4n3)n2)C1` [Compound 92], 39 nM. Same read-out and setting: the result for `COCCOc1ccc2c(c1)OCCN2c1ccc2cnc(CNC(=O)c3cc(F)c4c(c3)S(=O)(=O)[C@@H](F)CCO4)cc2n1` [Compound 93] reads 42.3 nM; that for `CCOc1ccnc2c1OCCN2c1ccc2cnc(CNC(=O)c3cc(Cl)c4c(c3)S(=O)(=O)[C@@H](F)CCO4)cc2n1` [Compound 94], 58.6 nM. Same read-out and setting: the value for `CN(C)c1cnc2c(c1)OCCN2c1ccc2cnc(CNC(=O)c3cc(F)c4c(c3)S(=O)(=O)[C@@H](F)CCO4)cc2n1` [Compound 106] was 35.3 nM; that for `C[C@@H]1CN(c2cccc(/C=C/c3ccnc(CNC(=O)c4cc(Cl)c5c(c4)S(=O)(=O)[C@@H](F)COC5)c3)n2)C[C@H](C)O1` [Compound 107] was 99 nM; that for `O=C(NCc1cc2nc(N3CCOc4ccc(OC(F)F)nc43)ccc2cn1)c1cc(F)c2c(c1)S(=O)(=O)[C@@H](F)CCO2` [Compound 126] was 88.9 nM. As for `COc1nc(C(F)(F)F)ccc1-c1ccc2cnc(CNC(=O)c3cc(F)c4c(c3)S(=O)(=O)[C@@H](F)COC4)cc2n1` [Compound 127], the IC50 was 72.5 nM. Same read-out and setting: the result for `O=C(NCc1cc2nc(-c3cccc([C@H]4CC4(F)F)n3)ccc2cn1)c1cc(F)c2c(c1)S(=O)(=O)[C@@H](F)COC2` [Compound 128] reads 123 nM.

As to `O=C(NCc1cc2nc(N3CCOc4ccc(C(F)F)nc43)ccc2cn1)c1cc(Cl)c2c(c1)S(=O)(=O)[C@@H](F)COC2` [Compound 208], the IC50 was 239 nM. The same measure, in the same setting: the value for `O=C(NCc1cc2nc(N3CCOc4ccc([C@@H]5C[C@@H]5F)nc43)ccc2cn1)c1cc(F)c2c(c1)S(=O)(=O)[C@@H](F)COC2` [Compound 209] was 103 nM; that for `CO[C@H]1C[C@@H]1N(C)c1cccc(-c2ccc3cnc(CNC(=O)c4cc(F)c5c(c4)S(=O)(=O)[C@@H](F)COC5)cc3n2)n1` [Compound 211] was 61.6 nM.

Turning to `O=C(NCc1cc2nc(N3CCOc4c(N5CC6(CC6)C5)ccnc43)ccc2cn1)c1cc(F)c2c(c1)S(=O)(=O)[C@@H](F)COC2` [Compound 212], the IC50 is 136 nM. On the same count and under the same terms, the result for `O=C(NCc1cc2nc(N3CCOc4cc(OCC(F)F)cnc43)ccc2cn1)c1cc(F)c2c(c1)S(=O)(=O)[C@@H](F)COC2` [Compound 213] reads 90.3 nM; that for `C[C@@H]1CCN1c1cc2c(cn1)N(c1ccc3cnc(CNC(=O)c4cc(F)c5c(c4)S(=O)(=O)[C@@H](F)COC5)cc3n1)CCO2` [Compound 214], 72 nM. Consider `C[C@@H]1C[C@H](C)N1c1cnc2c(c1)OCCN2c1ccc2cnc(CNC(=O)c3cc(F)c4c(c3)S(=O)(=O)[C@@H](F)CCO4)cc2n1` [Compound 218], for which the IC50 stood at 90.6 nM. The same measure, in the same setting: the result for `COCC1CN(c2ccc3c(c2)N(c2ccc4cnc(CNC(=O)c5cc(F)c6c(c5)S(=O)(=O)[C@@H](F)CCO6)cc4n2)CCO3)C1` [Compound 219] reads 167 nM; that for `O=C(NCc1cc2nc(-c3cncc(N4CCCC4)n3)ccc2cn1)c1cc(F)c2c(c1)S(=O)(=O)[C@@H](F)CCO2` [Compound 220], 148 nM; that for `O=C(NCc1cc2cc(-c3cccc(C(F)F)n3)ccc2cn1)c1cc(F)c2c(c1)S(=O)(=O)[C@@H](F)COC2` [Compound 232], 140 nM. Still for that read-out and setting: the value for `C[C@H]1CCN1c1cnc2c(c1)OCCN2c1ccc2cnc(CNC(=O)c3cc(F)c4c(c3)S(=O)(=O)[C@@H](F)CCO4)cc2n1` [Compound 233] was 76.2 nM; that for `COc1nc(C(F)F)ccc1-c1ccc2cnc(CNC(=O)c3cc(C(F)F)c4c(c3)S(=O)(=O)[C@@H](F)COC4)cc2n1` [Compound 234] was 83 nM. As to `O=C(NCc1cc2nc(N3CCOc4cc(C5CC5)cnc43)ccc2cn1)c1cc(F)c2c(c1)S(=O)(=O)[C@@H](F)CCO2` [Compound 241], the IC50 worked out at 82.4 nM. The same measure, in the same setting: the result for `COc1nc([C@@H](C)F)ccc1-c1ccc2cnc(CNC(=O)c3cc(Cl)c4c(c3)S(=O)(=O)[C@@H](F)COC4)cc2n1` [Compound 242] reads 246 nM; that for `C[C@@H]1CCCN1c1cnc2c(c1)OCCN2c1ccc2cnc(CNC(=O)c3cc(F)c4c(c3)S(=O)(=O)[C@@H](F)CCO4)cc2n1` [Compound 243], 111 nM; that for `[2H]C([2H])([2H])Oc1ccc(-c2ccc3cnc(CNC(=O)c4cc(F)c5c(c4)S(=O)(=O)[C@@H](F)CCO5)cc3n2)nc1C1CC1` [Compound 257], 108 nM.

With `O=C(NCc1cc2nc(N3CCOc4cc(N5C[C@@H](F)[C@H](F)C5)cnc43)ccc2cn1)c1cc(Cl)c2c(c1)S(=O)(=O)[C@@H](F)CCO2` [Compound 258, (R)-9-chloro-N-((2-(7-((3R,4R)-3,4-difluoropyrrolidin-1-yl)-2,3-dihydro-4H-pyrido[3,2-b][1,4]oxazin-4-yl)-1,6-naphthyridin-7-yl)methyl)-4-fluoro-3,4-dihydro-2H-benzo[b][1,4]oxathiepine-7-carboxamide 5,5-dioxide], the IC50 was 102 nM.

On to `O=C(NCc1cc2nc(N3CCOc4ccc(N5CCC5)nc43)ccc2cn1)c1cc(F)c2c(c1)S(=O)(=O)[C@@H](F)CCO2` [Compound 264], for which the IC50 is 177 nM. The same measure, in the same setting: the value for `O=C(NCc1cc2cc(-c3cccc(C4CC4)n3)ccc2cn1)c1cc(F)c2c(c1)S(=O)(=O)[C@@H](F)CCO2` [Compound 291] was 206 nM; that for `C#Cc1cc(C(=O)NCc2cc3nc(-c4cccc(N5C[C@@H](C)O[C@@H](C)C5)n4)ccc3cn2)cc2c1OCC[C@H](F)S2(=O)=O` [Compound 314] was 4130 nM; that for `COc1cc(C(=O)NCc2cc3nc(-c4ccc(OC(F)F)c(C5CC5)n4)ccc3cn2)cc2c1COC[C@H](F)S2(=O)=O` [Compound 329] was 1350 nM.

Consider `CCOc1cccc(-c2ccc3cnc(CNC(=O)c4cc(F)c5c(c4)S(=O)(=O)[C@@H](F)CCO5)cc3n2)n1` [Compound 330], for which the IC50 amounted to 351 nM.

A further test relates to BRM-dependent transcription (BRG1 mutant lung cancer cell line A549). As to the kind of experiment: BRM-dependent transcription, MMTV luciferase reporter in BRG1 mutant A549 cells. It counts as cell-based. To be noted: A549-MMTV luciferase reporter, dexamethasone induced, 6 hours, Table 11. In outline:
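Compound dose series added to dexamethasone-stimulated A549 cells (BRG1 mutant) carrying a BRM-dependent mouse mammary tumor virus luciferase reporter; luminescence measured at 6 h post-stimulation.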
With `CCOc1nc([C@@H](F)CF)ccc1-c1ccc2cnc(CNC(=O)c3cc(C(F)F)c4c(c3)S(=O)(=O)[C@@H](F)COC4)cc2n1` [Compound 515], the IC50 is 16.7 nM. Same read-out and setting: the value for `CCOc1nc([C@@H](F)CF)ccc1-c1ccc2cnc(CNC(=O)c3cc(Cl)c4c(c3)S(=O)(=O)[C@@H](F)COC4)cc2n1` [Compound 516] was 12.1 nM; that for `CCOc1nc([C@@H](F)CF)ccc1-c1ccc2cnc(CNC(=O)c3cc(Br)c4c(c3)S(=O)(=O)[C@@H](F)COC4)cc2n1` [Compound 517] was 20.4 nM; that for `CCOc1nc([C@H](F)CF)ccc1-c1ccc2cnc(CNC(=O)c3cc(C(F)F)c4c(c3)S(=O)(=O)[C@@H](F)COC4)cc2n1` [Compound 518] was 21 nM.

In turn, `CCOc1nc([C@H](F)CF)ccc1-c1ccc2cnc(CNC(=O)c3cc(Cl)c4c(c3)S(=O)(=O)[C@@H](F)COC4)cc2n1` [Compound 519] had an IC50 of 22.6 nM.

The test is the same for the next values; noted with them: Homo sapiens, A549, 6 h, A549-MMTV luciferase reporter, dexamethasone induced, 6 hours, Table 11.
`O=C(NCc1cc2nc(-n3cc(F)c(OC(F)F)n3)ccc2cn1)c1cc(C(F)F)c2c(c1)S(=O)(=O)[C@@H](F)COC2` [Compound 514, (2R)—N-[[2-[3-(difluoromethoxy)-4-fluoro-pyrazol-1-yl]-1,6-naphthyridin-7-yl]methyl]-6-(difluoromethyl)-2-fluoro-1,1-dioxo-3,5-dihydro-2H-4,1benzoxathiepine-8-carboxamide] yielded an IC50 of 21 nM. Still for that read-out and setting: the result for `[2H]C([2H])([2H])Oc1ccc(-c2ccc3cnc(CNC(=O)c4cc(Br)c5c(c4)S(=O)(=O)[C@@H](F)COC5)cc3n2)nc1C1CC1` [Compound 522] reads 21.4 nM; that for `[2H]C([2H])([2H])Oc1ccc(-c2ccc3cnc(CNC(=O)c4cc(Cl)c5c(c4)S(=O)(=O)[C@@H](F)COC5)cc3n2)nc1C1CC1` [Compound 523], 16.2 nM.

The same test, now with this note: MMTV luciferase reporter cell lines, selectivity BRG1/BRM, Table 11.
`O=C(NCc1cc2nc(-n3cc(F)c(OC(F)F)n3)ccc2cn1)c1cc(C(F)F)c2c(c1)S(=O)(=O)[C@@H](F)COC2` [Compound 514, (2R)—N-[[2-[3-(difluoromethoxy)-4-fluoro-pyrazol-1-yl]-1,6-naphthyridin-7-yl]methyl]-6-(difluoromethyl)-2-fluoro-1,1-dioxo-3,5-dihydro-2H-4,1benzoxathiepine-8-carboxamide]: the “Ratio (MDA-MMTV IC50 (μM) divided by A549-MMTV IC50 (μM))” value is listed as 32.01. `CCOc1nc([C@@H](F)CF)ccc1-c1ccc2cnc(CNC(=O)c3cc(C(F)F)c4c(c3)S(=O)(=O)[C@@H](F)COC4)cc2n1` [Compound 515]: the “Ratio (MDA-MMTV IC50 (μM) divided by A549-MMTV IC50 (μM))” value worked out at 23.82. On the same count and under the same terms, the result for `CCOc1nc([C@@H](F)CF)ccc1-c1ccc2cnc(CNC(=O)c3cc(Cl)c4c(c3)S(=O)(=O)[C@@H](F)COC4)cc2n1` [Compound 516] reads 31.51; that for `CCOc1nc([C@@H](F)CF)ccc1-c1ccc2cnc(CNC(=O)c3cc(Br)c4c(c3)S(=O)(=O)[C@@H](F)COC4)cc2n1` [Compound 517], 35.51. On to `CCOc1nc([C@H](F)CF)ccc1-c1ccc2cnc(CNC(=O)c3cc(C(F)F)c4c(c3)S(=O)(=O)[C@@H](F)COC4)cc2n1` [Compound 518], for which the “Ratio (MDA-MMTV IC50 (μM) divided by A549-MMTV IC50 (μM))” value was found to be 35.47.

In the case of `CCOc1nc([C@H](F)CF)ccc1-c1ccc2cnc(CNC(=O)c3cc(Cl)c4c(c3)S(=O)(=O)[C@@H](F)COC4)cc2n1` [Compound 519], the “Ratio (MDA-MMTV IC50 (μM) divided by A549-MMTV IC50 (μM))” value is listed as 28.12. Still for that read-out and setting: the result for `[2H]C([2H])([2H])Oc1ccc(-c2ccc3cnc(CNC(=O)c4cc(Br)c5c(c4)S(=O)(=O)[C@@H](F)COC5)cc3n2)nc1C1CC1` [Compound 522] reads 29.68.

For the molecule `[2H]C([2H])([2H])Oc1ccc(-c2ccc3cnc(CNC(=O)c4cc(Cl)c5c(c4)S(=O)(=O)[C@@H](F)COC5)cc3n2)nc1C1CC1` [Compound 523], the “Ratio (MDA-MMTV IC50 (μM) divided by A549-MMTV IC50 (μM))” value is given as 26.20.

Broadly, the IC50 is the point on the concentration scale where inhibition reaches its midpoint.

Values taken from patent publication US12139487B2, “Compounds and uses thereof” (Foghorn Therapeutics Inc., priority 2022, dated 2024).
